The text below walks through data of US20170266155A1, “METHOD FOR ENHANCING THE OXYGENATION LEVEL OF TISSUE CELLS AS AN ALTERNATIVE METHOD FOR HYPERBARIC OXYGEN THERAPY” (National Sun Yat-sen University, priority 2016, published 2017).

The structures appear in SMILES notation.

The target in the experiment is hemoglobin (Hb) (Homo sapiens, UniProt P68871+P69905). Description: Oxygen equilibrium curves and P50 value of hemoglobin (Hb). To be noted: for effect of phthalide compound together with 2,3-BPG on oxygen release efficiency of hemoglobin (Hb): combined with 2,3-BPG (FIG. 1). It counts as biochemical. From the text: The oxygen affinity of hemoglobin (Hb) is commonly characterized by P50 value. The P50 value is the required oxygen partial pressure to achieve 50% oxygen saturation of hemoglobin. […] An increased blood PCO2, a decreased pH or an increased 2,3-BPG level in erythrocytes can all decrease the oxygen affinity of hemoglobin (Hb), so that the oxygen equilibrium curve shifts to the right and the P50 value increases (as shown in FIG. 2); contrarily, when the oxygen affinity of hemoglobin (Hb) increases, the oxygen equilibrium curve shifts to the left and the P50 value decreases.
The oxygen affinity of hemoglobin (Hb) was commonly characterized by P50 value. The P50 value was the required oxygen partial pressure to achieve 50% oxygen saturation for hemoglobin. […] An increased blood PCO2, a decreased pH or an increased 2,3-BPG concentration in erythrocytes could decrease the oxygen affinity of hemoglobin (Hb), as a result, the oxygen equilibrium curve shifted to the right and the P50 value increased (as shown in FIG. 2); contrarily, when the oxygen affinity of hemoglobin (Hb) increased, the oxygen equilibrium curve shifted to the left and the P50 value decreased.

Sequence of hemoglobin (Hb) (P69905 2-142 limits assumed): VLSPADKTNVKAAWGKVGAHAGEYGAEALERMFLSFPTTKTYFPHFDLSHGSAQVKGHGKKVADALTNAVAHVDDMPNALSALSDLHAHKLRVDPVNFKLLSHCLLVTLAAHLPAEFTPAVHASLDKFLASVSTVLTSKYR
Sequence of hemoglobin (Hb) (P68871 2-147 limits assumed): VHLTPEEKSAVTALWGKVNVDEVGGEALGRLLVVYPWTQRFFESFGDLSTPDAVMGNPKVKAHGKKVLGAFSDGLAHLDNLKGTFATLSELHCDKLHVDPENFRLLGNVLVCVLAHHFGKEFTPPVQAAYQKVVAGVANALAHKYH

With `O=C(O)C(COP(=O)(O)O)OP(=O)(O)O` (stereo not drawn) [2,3-BPG, 2,3-bisphosphorglycerate], the “oxygen saturation fraction of hemoglobin (Hb)” value (12 mM 2,3-BPG, fixed oxygen partial pressure of 20 mmHg, 80% where no 2,3-BPG is present (FIG. 3)) was determined as 35%. For the same compound, the “oxygen release efficiency of Hb” value (12 mM 2,3-BPG, oxygen partial pressure 20 mmHg, 20% without 2,3-BPG) was 65%. The “P50 value / shift of oxygen equilibrium curve with concentration” value (2,3-BPG concentrations 0.2-12 mM (FIG. 3)) is recorded as “the P50 value is higher”. For the setting “PO2=20 mmHg, 1.2 mM 2,3-BPG alone”, this compound gave an oxygen release efficiency of 40%. For the same compound, the oxygen saturation fraction result (PO2=20 mmHg, 1.2 mM 2,3-BPG alone (FIG. 6)) was “approximately 60%”. For the setting “approximately 4 mM 2,3-BPG, no phthalide compound (FIG. 5)”, the “P50 value of hemoglobin (Hb)” value was found to be 18.8 mmHg.
`CCC/C=C1\OC(=O)c2ccccc21` [Z-Butylidenephthalide, Z-butylidenephthalide]: for the setting “shortest detection time frame (30 minutes) (FIG. 2)”, the “effect on oxygen release efficiency of hemoglobin (Hb) from resulting P50 values” is “increasing the oxygen release efficiency of hemoglobin (Hb)”.
Consider `CCC/C=C1\OC(=O)C2=C1CCC=C2` [Z-ligustilide], for which the “effect of phthalide compound together with 2,3-BPG on oxygen release efficiency of hemoglobin (Hb)” value was “synergistic effect”.
Same read-out and setting: next, `CCC/C=C1\OC(=O)C2=C1CC[C@@H](O)[C@@H]2O` [senkyunolide I]: “synergistic effect”.
